Experimental data as given in US12528837B2, “Aryl substituted polymyxin derivatives” (priority 2018, dated 2026).
Values after ≈ are worked out from the molar mass of the structure shown. Read-outs that look alike come from different tables or passages of the source. Where a SMILES comes first, the peptide text is derived from it. Bridges are numbered along the chain shown (N, C = ends). [ ]: non-standard residue; d: D form. The star is where a group is joined. X16 = NC[C@H](CC(=O)*)Cc1cccc(Cl)c1; X12 = NC[C@H](CC(=O)*)c1cccc(Br)c1; X15 = NC[C@@H](CC(=O)*)c1ccccc1Cl; Dab = NCC[C@H](N)C(=O)O; Abu = CC[C@H](N)C(=O)O; Dap = NC[C@H](N)C(=O)O

Experiments:
Format in all cases: cell-based
K. pneumoniae CA64 = system: K. pneumoniae CA64
Method: (§1) The inoculum was prepared by making a direct suspension of isolated colonies (selected from an 18-24 hour Mueller-Hinton agar plate) adjusted to the 0.5 McFarland standard. […] The assays were performed in duplicate. […] Several of the compounds were subjected to multiple tests, and where this is the case, the MIC presented is the median value obtained. The MIC values are quoted in μg/mL.

E. coli CA58 = system: E. coli CA58
Method: as §1

P. aeruginosa CCUG 59347 = system: P. aeruginosa CCUG 59347
Method: as §1

A. baumannii NCTC 13424 = system: A. baumannii NCTC 13424
Method: (§2) The inoculum was prepared by making a direct suspension of isolated colonies (selected from an 18-24 hour Mueller-Hinton agar plate) adjusted to the 0.5 McFarland standard. […] The assays were performed in duplicate. […] The MIC values are quoted in μg/mL.

K. pneumoniae ATCC 13822 = system: K. pneumoniae ATCC 13822
Method: as §2

[1] = system: A. baumannii ATCC BAA-747
Method: as §2

E. coli ATCC 25922 = system: E. coli ATCC 25922
Method: as §2

P. aeruginosa ATCC 27853 = system: P. aeruginosa ATCC 27853
Method: as §2

[2] = cation-adjusted Mueller-Hinton Broth, 18-20 h, 35° C.

| MIC K. pneumoniae CA64 (K. pneumoniae CA64; CA64) [µg/mL] | MIC E. coli CA58 (E. coli CA58; CA58) [µg/mL] | MIC P. aeruginosa CCUG 59347 (P. aeruginosa CCUG 59347; CCUG 59347) [µg/mL] | MIC A. baumannii NCTC 13424 (A. baumannii NCTC 13424; NCTC 13424) [µg/mL] | MIC K. pneumoniae ATCC 13822 (K. pneumoniae ATCC 13822; ATCC 13822) [µg/mL] | MIC A. baumannii ATCC BAA-747 ([1]; ATCC BAA-747) [µg/mL] | MIC E. coli ATCC 25922 (E. coli ATCC 25922; ATCC 25922) [µg/mL] | MIC P. aeruginosa ATCC 27853 (P. aeruginosa ATCC 27853; ATCC 27853) [µg/mL] | SMILES | MIC K. pneumoniae CA64 (K. pneumoniae CA64; [2]) [µg/mL] | MIC E. coli CA58 (E. coli CA58; [2]) [µg/mL] | MIC P. aeruginosa CCUG 59347 (P. aeruginosa CCUG 59347; [2]) [µg/mL] | MIC A. baumannii NCTC 13424 (A. baumannii NCTC 13424; [2]) [µg/mL] | MIC K. pneumoniae ATCC 13822 (K. pneumoniae ATCC 13822; [2]) [µg/mL] | MIC P. aeruginosa ATCC 27853 (P. aeruginosa ATCC 27853; [2]) [µg/mL] | MIC A. baumannii ATCC BAA-747 [1, 2] [µg/mL] | MIC E. coli ATCC 25922 (E. coli ATCC 25922; [2]) [µg/mL] |
| --- | --- | --- | --- | --- | --- | --- | --- | --- | --- | --- | --- | --- | --- | --- | --- | --- |
| 8 (≈ 6.9 µM) | 4 (≈ 3.45 µM) | 0.5 (≈ 0.431 µM) | 0.25 (≈ 0.216 µM) | 0.5 (≈ 0.431 µM) | 0.25 (≈ 0.216 µM) | 0.5 (≈ 0.431 µM) | – | CC(C)C[C@@H]1NC(=O)[C@@H](Cc2ccccc2)NC(=O)[C@H](CCN)NC(=O)[C@@H](NC(=O)[C@H](CN)NC(=O)[C@@H](NC(=O)C[C@@H](CN)Cc2cccc(Cl)c2)[C@@H](C)O)CCNC(=O)[C@H]([C@@H](C)O)NC(=O)[C@H](CCN)NC(=O)[C@H](CCN)NC1=O [Example 12, (S)-4-amino-3-(3- chlorobenzyl)butanoyl- Thr-Dap-Cyclo[Dab- Dab-DPhe-Leu-Dab- Dab-Thr]. Isomer 2] (X16-T[Dap][Dab][Dab][dF]L[Dab][Dab]T; lactam 3-C) | – | – | – | – | – | – | – | – |
| – | – | – | – | – | – | – | – | CC[C@@H]1NC(=O)[C@@H](CC(C)C)NC(=O)[C@H](CCN)NC(=O)[C@@H](NC(=O)[C@H](CN)NC(=O)[C@@H](NC(=O)C[C@@H](CN)c2cccc(Br)c2)[C@@H](C)O)CCNC(=O)[C@H]([C@@H](C)O)NC(=O)[C@H](CCN)NC(=O)[C@H](CCN)NC1=O [Example 33, (R)-4-amino-3-(3- bromophenyl)butanoyl- Thr-Dap-Cyclo[Dab- Dab-DLeu-Abu-Dab- Dab-Thr],] (X12-T[Dap][Dab][Dab][dL][Abu][Dab][Dab]T; lactam 3-C) | 16 (≈ 14.2 µM) | 64 (≈ 56.8 µM) | 0.5 (≈ 0.444 µM) | 1 (≈ 0.887 µM) | 0.5 (≈ 0.444 µM) | 0.5 (≈ 0.444 µM) | 1 (≈ 0.887 µM) | 0.5 (≈ 0.444 µM) |
| – | – | – | – | – | – | – | – | CC(C)C[C@@H]1NC(=O)[C@@H](Cc2ccccc2)NC(=O)[C@H](CCN)NC(=O)[C@@H](NC(=O)[C@H](CN)NC(=O)[C@@H](NC(=O)C[C@H](CN)c2ccccc2Cl)[C@@H](C)O)CCNC(=O)[C@H]([C@@H](C)O)NC(=O)[C@H](CCN)NC(=O)[C@H](CCN)NC1=O [Example 3, (S)-4-amino-3-(2- chlorophenyl)butanoyl- Thr-Dap-Cyclo[Dab- Dab-DPhe-Leu-Dab- Dab-Thr]] (X15-T[Dap][Dab][Dab][dF]L[Dab][Dab]T; lactam 3-C) | 65 (≈ 56.8 µM) | 32 (≈ 28 µM) | 0.5 (≈ 0.437 µM) | 1 (≈ 0.874 µM) | 0.5 (≈ 0.437 µM) | 0.5 (≈ 0.437 µM) | 2 (≈ 1.75 µM) | 1 (≈ 0.874 µM) |
| 16 (≈ 14.2 µM) | 8 (≈ 7.11 µM) | 0.5 (≈ 0.445 µM) | 0.5 (≈ 0.445 µM) | 0.5 (≈ 0.445 µM) | 0.5 (≈ 0.445 µM) | 0.5 (≈ 0.445 µM) | 0.25 (≈ 0.222 µM) | CC(C)C[C@@H]1NC(=O)[C@@H](CC(C)C)NC(=O)[C@H](CCN)NC(=O)[C@@H](NC(=O)[C@H](CN)NC(=O)[C@@H](NC(=O)C[C@@H](CN)Cc2cccc(Cl)c2)[C@@H](C)O)CCNC(=O)[C@H]([C@@H](C)O)NC(=O)[C@H](CCN)NC(=O)[C@H](CCN)NC1=O [Example 13, (S)-4-amino-3-(3- chlorobenzyl)butanoyl- Thr-Dap-Cyclo[Dab- Dab-DLeu-Leu-Dab- Dab-Thr], Isomer 2] (X16-T[Dap][Dab][Dab][dL]L[Dab][Dab]T; lactam 3-C) | – | – | – | – | – | – | – | – |
